Laboratory results published in US9486434B2, “Method for delivery and use of isothiocyanates for prophylaxis and/or therapy of bladder cancer” (Health Research Inc., priority 2010, dated 2016).
* marks the point of attachment. Cbz = O=C(OCc1ccccc1)*; CH2F = FC*

Tests used:
[1] = tested on: cyclooxygenase-2 (Cox-2) in human bladder cancer HT1376 cells; test: Western blot analysis of Cox-2 in HT1376 cells; format: cell-based; settings: 24 h, cells overexpressing Cox-2
Description: FIG. 5. The effects of AITC and SF on cyclooxygenase-2 (Cox-2) expression in human bladder cancer cells. Human bladder cancer HT1376 cells that over express Cox-2 were treated with AITC or SF at the indicated concentrations for 24 h and then harvested for Western blot analysis of Cox-2. GAPDH is used as a loading control.

[2] = reference [18]; cited from earlier work
[3] = tested on: human bladder cancer UM-UC-3 cells; test: MTT cell growth and proliferation assay, UM-UC-3 cells; format: cell-based; settings: sinigrin by itself, without myrosinase; result not shown
Description: (§1) FIG. 3. The effect of AITC on cell survival and proliferation. AITC was evaluated at the indicated concentrations in human bladder cancer UM-UC-3 cells, rat bladder cancer AY-27 cells, and normal human bladder epithelial cells (HUC). A. Cell growth inhibition, measured by MTT assay, 72-h AITC treatment. IC50 was calculated from nonlinear regression curve fit. B. Cell cycle arrest (□, subG1; ? , G1; ? , 5; ▪, G2/M), measured by flow cytometry, 24 h AITC treatment. C. Apoptosis induction, measured by an ELISA assay, 24 h AITC treatment. Mean±SE, n=3-6), *P<0.05.
(§2) FIG. 10. The effect of NAC-AITC on cell survival and proliferation. NAC-AITC was evaluated in both UM-UC-3 cells and AY-27 cells. (A) Chemical structures of AITC and NAC-AITC. (B) Cell growth and proliferation, measured by 3-([…])-2,5-diphenyltetrazolium bromide assay, 72 h treatment with AITC or NAC-AITC at indicated concentrations. IC50 was calculated from the non-linear regression curve fit. (C) Apoptosis, measured by an enzyme-linked immunosorbent assay, 24 h NAC-AITC treatment at 15 µM. (D) Cell cycle (open bars, G1; shaded bars, S; closed bars, G2/M), measured by flow cytometry, 24 h NAC-AITC treatment at 15 μM. *P<, 0.005, compared with control.
(§3) Assays for cell proliferation, cell cycle arrest and apoptosis. To determine the antiproliferative activity of NAC-AITC, AY-27 cells were grown in 96-well microtiter plates ([…] with 0.15 ml medium per well) for 24 h and then grown for 72 h in fresh medium (0.2 ml/well) containing a series of concentrations of NAC-AITC or solvent. Cell growth was measured at the end of treatment using the 3-([…])-2,5-diphenyltetrazolium bromide assay, from which the half maximal inhibitory concentration (IC50) of NAC-AITC was calculated. AITC was also evaluated for comparison.

[4] = tested on: orthotopic AY-27 bladder tumor; test: Orthotopic rat bladder cancer model; format: in vivo, rat (female F344); settings: sinigrin
Excerpt: FIG. 6. […] Female F344 rats were inoculated intravesically with bladder cancer AY-27 cells to initiate development of orthotopic bladder tumor. Oral administration of AITC at 0, 10, 25, 50 and 300 micromols/kg once daily was started 1 day after AY-27 cell inoculation and ended 3 weeks later. The number of rats per group varied from 6 to 33; some of the data, particularly the control group (n=33) and the group treated with the lowest dose of AITC (n=23), were pooled from several experiments. A. The initial and final body weights. B. The weights of bladder tumors. […] C. Percentage of bladders where the tumor invaded the muscle tissue. D. H/E staining of the normal rat bladder wall (D1), a superficial rat bladder tumor (D2), and a rat bladder tumor that invaded the muscle layer (D3).
FIG. 8. […] Female F344 rats were inoculated with AY-27 cells intravesically via a urethra catheter to initiate development of orthotopic bladder cancer. Oral administration of MSP-1 of vehicle (water) once daily was started 1 day after cancer cell inoculation and ended 3 weeks later. The number of rats per group varied from 11-29. A. Initial (□) and final (▪) body weights. […] Each value in A and B is mean±SEM. C. Percentage of bladder where the tumor invaded the muscle tissue. D. The effects of MSP-1 on selected anticancer targets in UM-UC-3 cells (in vitro), AY-27 cells (in vitro) and AY-27 tumors (in vivo). […] The bladder tumors were removed from rats treated with MSP-1 at the sinigrin doses of 9 or 90 micromols/kg once daily for 3 weeks, started 1 day after cancer cell inoculation. Cell lysates and tumor homogenates were analyzed by Western blotting, using GAPDH as a loading control.
FIG. 9. […] Female F344 rats were inoculated with bladder cancer AY-27 cells to initiate development of orthotopic bladder tumor. Oral administration of the powder (sinigrin and glucoraphanin: each at 10 micromols/kg) once daily was started 1 day after AY-27 cell inoculation and ended 3 weeks later. The number of rats per group was 9-10. Each value is mean±SE.
FIG. 12. […] Bladder cancer was initiated in female F344 rats by orthotopic inoculation of bladder cancer AY-27 cells. Oral administration of NAC-AITC at 10 μmmol/kg body wt once daily was started 1 day after cancer cell inoculation and ended 3 weeks later. There were 23 rats in the control group and 15 rats in the treatment group. (A) The initial (open bars) and final (closed bars) body weight. (B) Bladder tumor weight. Each value is a mean±SE. (C) Percentage of bladders where the tumor invaded the muscle tissue.
AITC was evaluated in an orthotopic rat bladder cancer model. […] Daily oral administration of AITC was initiated one day after instillation of AY-27 cells and continued for 3 weeks. AITC was evaluated at 4 dose levels: 10, 25, 50 and 300 micromols/kg. […] FIG. 6D depicts representative images of normal rat bladder wall (D1), a superficial AY-27 rat bladder tumor (D2), and a muscle-invasive AY-27 rat bladder tumor (D3).
A syngeneic orthotopic rat bladder cancer model.

[5] = Conversion of sinigrin to AITC in vivo; settings: rat
[6] = tested on: rat bladder cancer AY-27 cells; test: MTT cell growth and proliferation assay, AY-27 cells; format: cell-based; settings: sinigrin by itself, without myrosinase; result not shown
Description: as §1, §2, §3

[7] = tested on: α-tubulin, β-tubulin, γ-tubulin, caspase-9, caspase-3, VEGF in UM-UC-3 cells; test: Western blotting in UM-UC-3 cells (tubulins, caspases, VEGF); format: cell-based, human; settings: co-treatment, 20 microM Z-LEHD-FMK
Description: (§4) FIG. 4. Effect of AITC on mitosis, tubulin expression and apoptosis in human bladder cancer UM-UC-3 cells. Cells were treated with vehicle or AITC for 24 h (each numerical value is mean±SD). A. Flow cytometry analysis for cell cycle arrest. B. Wright-Giemsa staining for counting mitotic figures. Arrows point to cells in mitosis or mitotic catastrophe. C. Immunofluorescent staining of microtubules (green color) and DNA staining with DAPI (blue color). D. Western blotting of tubulins (GAPDH as a loading control). E. Loss of mitochondrial transmembrane potential (Δψm) measured by flow cytometry. F. Western blotting of caspase-9 and caspase-3 (GAPDH as a loading control). G. Apoptotic cells (TUNEL cells) measured by flow cytometry. Cells in F and G were co-treated with or without 20 microM Z-LEHD-FMK (a caspase-9 inhibitor).
FIG. 8. Inhibition of bladder cancer development by MSP-1. Female F344 rats were inoculated with AY-27 cells intravesically via a urethra catheter to initiate development of orthotopic bladder cancer. Oral administration of MSP-1 of vehicle (water) once daily was started 1 day after cancer cell inoculation and ended 3 weeks later. The number of rats per group varied from 11-29. A. Initial (□) and final (▪) body weights. B. Tumor weight was calculated by subtracting the average normal bladder weight from tumor-bearing bladder weight. *P<0.05. Each value in A and B is mean±SEM. C. Percentage of bladder where the tumor invaded the muscle tissue. D. The effects of MSP-1 on selected anticancer targets in UM-UC-3 cells (in vitro), AY-27 cells (in vitro) and AY-27 tumors (in vivo). The cells were treated with MSP-1 at the sinigrin concentrations of 13 and 26 microM for 24 h. The bladder tumors were removed from rats treated with MSP-1 at the sinigrin doses of 9 or 90 micromols/kg once daily for 3 weeks, started 1 day after cancer cell inoculation. Cell lysates and tumor homogenates were analyzed by Western blotting, using GAPDH as a loading control.
Western blot analysis. […]

[8] = tested on: UM-UC-3 cells; test: Mitochondria-mediated apoptosis in UM-UC-3 cells (Δψm, cytochrome c, TUNEL); format: cell-based, human; settings: co-treatment, 20 microM Z-LEHD-FMK
Description: as §4

For `C[S+]([O-])CCCCN=C=S` (centres unmarked) [SF, sulforaphane], the “effect on Cox-2 expression” value [1] is given as “strongly down regulates” and the “delivery to bladder tissue” value [2] is given as “selectively delivered to bladder tissue through urinary excretion”.
With `C=CCC(=NOS(=O)(=O)O)S[C@@H]1O[C@H](CO)[C@@H](O)[C@H](O)[C@H]1O` (stereo in doubt) [sinigrin, reference compound] the “activity in vitro on bladder cancer cell line” value [3] was “inactive”, the “efficacy in the orthotopic rat bladder cancer model” value [4] was “ineffective” and the “sinigrin converted to AITC in vivo” value [5] was 3-5%. The “activity in vitro on bladder cancer cell line” value [6] was “inactive”.
In the case of Cbz-LEHD-CH2F [reference compound], the “effect on AITC-caused activation of the caspases” value [7] is reported as “completely blocked” and the “effect on AITC-caused formation of TUNEL-positive cells” value [8] is reported as “completely blocked”.
